Measurements as given in US9708314B2, “Heterocyclic amide compound” (NISSAN CHEMICAL INDUSTRIES, LTD., priority 2013, dated 2017).

Assays:
Format in all cases: in vivo
[1] = system: Echinochloa oryzacola Vasing.; assay: Test Example 2: herbicidal activity, application during weed generation in submerged conditions; details: Eighteenth Table; application herbicide amount 320 g/ha
In short: (§1)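 Post-emergence application under submerged conditions: water-diluted emulsion dosed onto the water surface (g/ha) when weeds reach one- to two-leaf stage. Soil flooded to 4 cm; greenhouse 25–30 °C. Herbicidal ratio graded in six classes, 0 (≤5%) to 5 (≥90%), at three weeks.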

Monochoria vaginalis = assay: as above; details: Eighteenth Table; application herbicide amount 320 g/ha
In short: as §1

Scirpus juncoides = assay: as above; details: Eighteenth Table; application herbicide amount 320 g/ha
In short: as §1

Alopecurus myosuroides = assay: Test Example 4: herbicidal effect by application to foliage (diluvial soil, plastic box); details: application to foliage, application herbicide amount 320 g/ha
In short: (§2)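 Emulsion-formulated compound, diluted to a predetermined g/ha dose, applied by small sprayer to leaves and stems of 14-day-old seedlings grown in sterilized diluvial soil. Effect rated on 0–5 herbicidal-ratio scale three weeks on.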

[2] = system: Echinochloa crus-galli var. crus-galli; assay: as above; details: application to foliage, application herbicide amount 320 g/ha
In short: as §2

Setaria viridis = assay: as above; details: application to foliage, application herbicide amount 320 g/ha
In short: as §2

Chenopodium album = assay: as above; details: application to foliage, application herbicide amount 320 g/ha
In short: as §2

Avena fatua = assay: as above; details: application to foliage, application herbicide amount 320 g/ha
In short: as §2

Lolium multiflorum Lam. = assay: as above; details: application to foliage, application herbicide amount 320 g/ha
In short: as §2

Apera spica-venti. = assay: as above; details: application to foliage, application herbicide amount 320 g/ha
In short: as §2

Abutilon theophrasti = assay: as above; details: application to foliage, application herbicide amount 320 g/ha
In short: as §2

Veronica persica = assay: as above; details: application to foliage, application herbicide amount 320 g/ha
In short: as §2

[3] = system: Beta vulgaris ssp. vulgaris; assay: Test Example 4: effect on crop by application to foliage (diluvial soil, plastic box); details: application to foliage, application herbicide amount 320 g/ha
In short: as §2

Brassica campestris L. = assay: as above; details: application to foliage, application herbicide amount 320 g/ha
In short: as §2

Glycine max = assay: as above; details: application to foliage, application herbicide amount 320 g/ha
In short: as §2

Zea mays = assay: as above; details: application to foliage, application herbicide amount 320 g/ha
In short: as §2

[4] = system: directly sowed Oryza sativa; assay: as above; details: application to foliage, application herbicide amount 320 g/ha
In short: as §2

Triticum aestivum = assay: as above; details: application to foliage, application herbicide amount 320 g/ha
In short: as §2

| SMILES | A (Echinochloa oryzicola Vasing.) herbicidal ratio grade [1] | C (Monochoria vaginalis) herbicidal ratio grade (Monochoria vaginalis) | B (Scirpus juncoides) herbicidal ratio grade (Scirpus juncoides) | J (Alopecurus myosuroides) herbicidal effect (Alopecurus myosuroides) | H (Echinochloa crus-galli var. crus-galli) herbicidal effect [2] | G (Setaria viridis) herbicidal effect (Setaria viridis) | O (Chenopodium album) herbicidal effect (Chenopodium album) | I (Avena fatua) herbicidal effect (Avena fatua) | K (Lolium multiflorum Lam.) herbicidal effect (Lolium multiflorum Lam.) | L (Apera spica-venti.) herbicidal effect (Apera spica-venti.) | M (Abutilon theophrasti) herbicidal effect (Abutilon theophrasti) | R (Veronica persica) herbicidal effect (Veronica persica) | f (Beta vulgaris ssp. vulgaris) effect on crop [3] | g (Brassica campestris L.) effect on crop (Brassica campestris L.) | c (Glycine max) effect on crop (Glycine max) | b (Zea mays) effect on crop (Zea mays) | d (directly sowed Oryza sativa) effect on crop [4] | e (Triticum aestivum) effect on crop (Triticum aestivum) |
| --- | --- | --- | --- | --- | --- | --- | --- | --- | --- | --- | --- | --- | --- | --- | --- | --- | --- | --- |
| Cc1ccc(-c2nnc3c(C(=O)Nc4nnc(C)o4)ccc(C(F)(F)F)n23)cc1 [1-043] | 3 (Herbicidal ratio of 40% or more and less than 70%) | 3 (Herbicidal ratio of 40% or more and less than 70%) | 3 (Herbicidal ratio of 40% or more and less than 70%) | 1 (Herbicidal ratio of 5% or more and less than 20%) | 5 (Herbicidal ratio of 90% or more (almost completely withered)) | 3 (Herbicidal ratio of 40% or more and less than 70%) | 5 (Herbicidal ratio of 90% or more (almost completely withered)) | 2 (Herbicidal ratio of 20% or more and less than 40%) | 1 (Herbicidal ratio of 5% or more and less than 20%) | 1 (Herbicidal ratio of 5% or more and less than 20%) | 5 (Herbicidal ratio of 90% or more (almost completely withered)) | 4 (Herbicidal ratio of 70% or more and less than 90%) | 5 (Herbicidal ratio of 90% or more (almost completely withered)) | 3 (Herbicidal ratio of 40% or more and less than 70%) | 2 (Herbicidal ratio of 20% or more and less than 40%) | 4 (Herbicidal ratio of 70% or more and less than 90%) | 2 (Herbicidal ratio of 20% or more and less than 40%) | 0 (Herbicidal ratio of 5% or less (almost no effect)) |
| Cc1nnc(NC(=O)c2ccc(C(F)(F)F)n3c(-c4ccc(F)cc4)nnc23)o1 [1-044] | 2 (Herbicidal ratio of 20% or more and less than 40%) | 2 (Herbicidal ratio of 20% or more and less than 40%) | 3 (Herbicidal ratio of 40% or more and less than 70%) | 1 (Herbicidal ratio of 5% or more and less than 20%) | 5 (Herbicidal ratio of 90% or more (almost completely withered)) | 4 (Herbicidal ratio of 70% or more and less than 90%) | 5 (Herbicidal ratio of 90% or more (almost completely withered)) | 1 (Herbicidal ratio of 5% or more and less than 20%) | 2 (Herbicidal ratio of 20% or more and less than 40%) | 4 (Herbicidal ratio of 70% or more and less than 90%) | 5 (Herbicidal ratio of 90% or more (almost completely withered)) | 5 (Herbicidal ratio of 90% or more (almost completely withered)) | 5 (Herbicidal ratio of 90% or more (almost completely withered)) | 4 (Herbicidal ratio of 70% or more and less than 90%) | 0 (Herbicidal ratio of 5% or less (almost no effect)) | 0 (Herbicidal ratio of 5% or less (almost no effect)) | 3 (Herbicidal ratio of 40% or more and less than 70%) | 0 (Herbicidal ratio of 5% or less (almost no effect)) |
| COc1ccccc1-c1nnc2c(C(=O)Nc3nnc(C)o3)ccc(C(F)(F)F)n12 [1-047] | 3 (Herbicidal ratio of 40% or more and less than 70%) | 3 (Herbicidal ratio of 40% or more and less than 70%) | 2 (Herbicidal ratio of 20% or more and less than 40%) | 0 (Herbicidal ratio of 5% or less (almost no effect)) | 5 (Herbicidal ratio of 90% or more (almost completely withered)) | 4 (Herbicidal ratio of 70% or more and less than 90%) | 5 (Herbicidal ratio of 90% or more (almost completely withered)) | 1 (Herbicidal ratio of 5% or more and less than 20%) | 0 (Herbicidal ratio of 5% or less (almost no effect)) | 1 (Herbicidal ratio of 5% or more and less than 20%) | 5 (Herbicidal ratio of 90% or more (almost completely withered)) | 4 (Herbicidal ratio of 70% or more and less than 90%) | 5 (Herbicidal ratio of 90% or more (almost completely withered)) | 4 (Herbicidal ratio of 70% or more and less than 90%) | 1 (Herbicidal ratio of 5% or more and less than 20%) | 0 (Herbicidal ratio of 5% or less (almost no effect)) | 3 (Herbicidal ratio of 40% or more and less than 70%) | 0 (Herbicidal ratio of 5% or less (almost no effect)) |
| Cc1nnc(NC(=O)c2ccc(C(F)(F)F)n3c(CC(=O)O)nnc23)o1 [1-048] | 0 (Herbicidal ratio of 5% or less (almost no effect)) | 0 (Herbicidal ratio of 5% or less (almost no effect)) | 1 (Herbicidal ratio of 5% or more and less than 20%) | 1 (Herbicidal ratio of 5% or more and less than 20%) | 5 (Herbicidal ratio of 90% or more (almost completely withered)) | 3 (Herbicidal ratio of 40% or more and less than 70%) | 5 (Herbicidal ratio of 90% or more (almost completely withered)) | 2 (Herbicidal ratio of 20% or more and less than 40%) | 1 (Herbicidal ratio of 5% or more and less than 20%) | 2 (Herbicidal ratio of 20% or more and less than 40%) | 5 (Herbicidal ratio of 90% or more (almost completely withered)) | 4 (Herbicidal ratio of 70% or more and less than 90%) | 5 (Herbicidal ratio of 90% or more (almost completely withered)) | 4 (Herbicidal ratio of 70% or more and less than 90%) | 0 (Herbicidal ratio of 5% or less (almost no effect)) | 0 (Herbicidal ratio of 5% or less (almost no effect)) | 4 (Herbicidal ratio of 70% or more and less than 90%) | 1 (Herbicidal ratio of 5% or more and less than 20%) |
| Cc1nnc(NC(=O)c2ccc(C(F)(F)F)n3c(CC(=O)OC(C)C)nnc23)o1 [1-049] | 4 (Herbicidal ratio of 70% or more and less than 90%) | 2 (Herbicidal ratio of 20% or more and less than 40%) | 2 (Herbicidal ratio of 20% or more and less than 40%) | 2 (Herbicidal ratio of 20% or more and less than 40%) | 5 (Herbicidal ratio of 90% or more (almost completely withered)) | 4 (Herbicidal ratio of 70% or more and less than 90%) | 5 (Herbicidal ratio of 90% or more (almost completely withered)) | 0 (Herbicidal ratio of 5% or less (almost no effect)) | 2 (Herbicidal ratio of 20% or more and less than 40%) | 3 (Herbicidal ratio of 40% or more and less than 70%) | 5 (Herbicidal ratio of 90% or more (almost completely withered)) | 4 (Herbicidal ratio of 70% or more and less than 90%) | 5 (Herbicidal ratio of 90% or more (almost completely withered)) | 4 (Herbicidal ratio of 70% or more and less than 90%) | 4 (Herbicidal ratio of 70% or more and less than 90%) | 0 (Herbicidal ratio of 5% or less (almost no effect)) | 3 (Herbicidal ratio of 40% or more and less than 70%) | 1 (Herbicidal ratio of 5% or more and less than 20%) |
